Legend:
recombinant human TDP2 = target: T1, recombinant human TDP2 (Homo sapiens, UniProt O95551); assay: Recombinant TDP2 assay; format: biochemical; settings: for Inhibition of recombinant TDP2 (in words): recombinant human TDP2, concentrations up to 111 μM
T1 sequence (O95551 1-362): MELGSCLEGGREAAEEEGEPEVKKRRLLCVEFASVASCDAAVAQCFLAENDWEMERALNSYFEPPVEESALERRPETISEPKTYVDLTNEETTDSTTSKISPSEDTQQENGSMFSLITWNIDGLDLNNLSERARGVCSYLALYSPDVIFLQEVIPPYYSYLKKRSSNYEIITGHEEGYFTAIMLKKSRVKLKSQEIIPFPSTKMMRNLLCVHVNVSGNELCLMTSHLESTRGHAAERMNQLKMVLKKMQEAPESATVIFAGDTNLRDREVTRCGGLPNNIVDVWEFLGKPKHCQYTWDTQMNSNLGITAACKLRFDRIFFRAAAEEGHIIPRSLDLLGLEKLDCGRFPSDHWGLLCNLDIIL

[1] = target: T2, human TDP2 (hTDP2) whole cell extracts (Homo sapiens, UniProt O95551); assay: Whole cell extract; format: biochemical
T2 sequence (O95551 1-362): T1 sequence (O95551 1-362)

hTDP2 DT40 cells = format: cell-based; settings: different concentrations of EPT
TDP1 = TDP1 (Homo sapiens, UniProt Q9NUW8); assay: TDP1 counter assay; format: biochemical; settings: highest testing concentration 111 μM
Sequence of TDP1 (Q9NUW8 whole entry): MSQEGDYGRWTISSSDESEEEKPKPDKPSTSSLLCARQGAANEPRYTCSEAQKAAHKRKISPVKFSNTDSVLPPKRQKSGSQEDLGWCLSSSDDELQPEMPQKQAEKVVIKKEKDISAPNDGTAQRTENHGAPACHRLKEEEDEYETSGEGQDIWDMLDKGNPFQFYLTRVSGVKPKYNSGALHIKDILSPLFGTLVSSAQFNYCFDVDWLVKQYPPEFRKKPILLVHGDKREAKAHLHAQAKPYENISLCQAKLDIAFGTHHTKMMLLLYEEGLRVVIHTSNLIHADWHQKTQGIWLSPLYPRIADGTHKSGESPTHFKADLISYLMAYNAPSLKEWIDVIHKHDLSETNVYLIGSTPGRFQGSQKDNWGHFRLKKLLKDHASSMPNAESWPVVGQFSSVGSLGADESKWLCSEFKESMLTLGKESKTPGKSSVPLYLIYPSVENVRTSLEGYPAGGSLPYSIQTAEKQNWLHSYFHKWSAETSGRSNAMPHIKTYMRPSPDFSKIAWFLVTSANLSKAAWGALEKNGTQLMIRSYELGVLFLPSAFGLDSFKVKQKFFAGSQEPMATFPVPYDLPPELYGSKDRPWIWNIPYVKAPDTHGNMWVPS

Inhibition of recombinant TDP2 (in words) (recombinant human TDP2)	SMILES	Synergy in combination with ETP (hTDP2 DT40 cells)	other results
inactive	O=C1Cc2cc(-c3ccco3)ccc2C(=O)N1O [Compound 46, 6-(Furan-2-yl)-2-hydroxyisoquinoline-1,3(2H,4H)-dione]		Inhibition of endogenous TDP2 in WCE (in words) [1]: inactive
	O=C1Cc2ccc(C(=O)O)cc2C(=O)N1 [Compound 40, 1,3-Dioxo-1,2,3,4-tetrahydroisoquinoline-7-carboxylic Acid]	not observed	
inactive	O=C1Cc2c(Br)cccc2C(=O)N1 [Compound 34, 5-Bromoisoquinoline-1,3(2H,4H)-dione]		
	O=C1Cc2cc(I)ccc2C(=O)N1 [Compound 36, 6-Iodoisoquinoline-1,3(2H,4H)-dione]	not observed	
	O=C1Cc2cc(-c3ccco3)ccc2C(=O)N1 [Compound 43, 6-(Furan-2-yl)isoquinoline-1,3 (2H,4H)-dione]	not observed	IC50 (recombinant human TDP2): 8.5 µM; Inhibition of TDP1 (counter assay) (TDP1): no inhibition
inactive	O=C1Cc2c(cccc2-c2ccco2)C(=O)N1 [Compound 45, 5-(Furan-2-yl)isoquinoline-1,3(2H,4H)-dione]		
	O=C1Cc2cc(-c3nc4ccccc4s3)ccc2C(=O)N1 [Compound 84]	not observed	
inactive	O=C1Cc2c(cccc2-c2cccc([N+](=O)[O-])c2)C(=O)N1 [Compound 58, 5-(3-Nitrophenyl)isoquinoline-1,3(2H,4H)-dione]		

SMILES	Inhibition of recombinant TDP2 (in words) (recombinant human TDP2)	Synergy in combination with ETP (hTDP2 DT40 cells)	other results
O=C1Cc2cccc(-c3cccc(O)c3)c2C(=O)N1 [Compound 53, 8-(3-Hydroxyphenyl)isoquinoline-1,3(2H,4H)-dione]	substantially reduced inhibitory activity		
O=C1Cc2cccc(-c3cccc([N+](=O)[O-])c3)c2C(=O)N1 [Compound 57, 8-(3-Nitrophenyl)isoquinoline-1,3(2H,4H)-dione]	substantially reduced inhibitory activity		

— paper PMC7832085 (Journal of medicinal chemistry, 2016)
